The values below come from US20250066359A1, “SOMATOSTATIN RECEPTOR SUBTYPE 5 ANTAGONISTS, AND PHARMACEUTICAL COMPOSITION AND USE THEREOF” (SHANGHAI INSTITUTE OF MATERIA MEDICA, CHINESE ACADEMY OF …, priority 2021, published 2025).

In experiment [1] the target is T1, hSSTR5 (Homo sapiens, UniProt P35346).
T1 construct: expressed in transfected cells; host or cells: CHO cells co-expressing Gα16 (hSSTR5-CHO-Gα16)
As to the kind of experiment: SSTR5 antagonistic activity in vitro by calcium flow detection (hSSTR5-CHO-Gα16 cells). It is filed as cell-based. The note with it: for IC50: hSSTR5-CHO-Gα16 cells, 100 nM Somatostatin-14 agonist, Fluo-4 fluorescence 525 nm; for SSTR5 antagonistic activity (in words): summary of Table 1. The source says:
(§1) Testing SSTR5 antagonistic activity in vitro by Calcium flow detection method Experimental principle: After the receptor binds to the ligand and is activated, it can cause the activation of Gα16 protein, which further activates phospholipase C(PLC) to produce IP3 and DAG. IP3 can bind to the IP3 receptors on the endoplasmic reticulum and mitochondria in the cell, thereby causing the release of intracellular calcium. Therefore, measuring the changes in intracellular calcium can be used in the method to detect the activation state of hSSTR5. Fluo-4/AM is a calcium fluorescent probe indicator used to measure calcium ions. As a non-polar lipid-soluble compound, after it enters the cell, the AM group therein dissociates, and Fluo-4 is released under the action of cellular lipase; because Fluo-4 is a polar molecule and is not easy to pass through the lipid bilayer membrane, it can keep Fluo-4 in the cell fora longtime. Finally, the level of Ga protein activation can be reflected by measuring the intensity of the excited fluorescence. Somatostatin, an agonist of SSTR5, can activate SSTR5 receptors and greatly increase the calcium flow response. The SSTR5 antagonist to be tested can inhibit the agonist activity of the SSTR5 receptor and reduce the calcium increased flow response of the receptor stimulated by the agonist.
(§2) • (1) The hSSTR5-CHO-Gα16 and mSSTR5-CHO-Gα16 cell lines stably expressing hSSTR5 or mSSTR5 receptors were seeded at a density of 30,000/well in a 96-well plate and cultured in a 37° C. incubator overnight. • (2) The cells was aspirated off the culture medium, added with freshly prepared dye at 40 μL/well, and incubated in a 37° C. incubator for 45 minutes. • (3) After the dye was aspirated and discarded, the cells were washed with freshly prepared calcium buffer and the culture medium was replaced with 50 μL of calcium buffer. • (4) The SSTR5 agonist Somatostatin-14 was diluted and mixed evenly with calcium buffer. • (5) Detection was performed using a Flextation instrument. Starting from the 15th second, 25 μL of the pre-prepared agonist was automatically added by the instrument, and the fluorescence value at 525 nm was read.

Experiment [2] has as its target T2, mSSTR5 (Mus musculus, UniProt O08858).
T2 construct: expressed in transfected cells; host or cells: CHO cells co-expressing Gα16 (mSSTR5-CHO-Gα16)
T2 sequence (O08858 1-362): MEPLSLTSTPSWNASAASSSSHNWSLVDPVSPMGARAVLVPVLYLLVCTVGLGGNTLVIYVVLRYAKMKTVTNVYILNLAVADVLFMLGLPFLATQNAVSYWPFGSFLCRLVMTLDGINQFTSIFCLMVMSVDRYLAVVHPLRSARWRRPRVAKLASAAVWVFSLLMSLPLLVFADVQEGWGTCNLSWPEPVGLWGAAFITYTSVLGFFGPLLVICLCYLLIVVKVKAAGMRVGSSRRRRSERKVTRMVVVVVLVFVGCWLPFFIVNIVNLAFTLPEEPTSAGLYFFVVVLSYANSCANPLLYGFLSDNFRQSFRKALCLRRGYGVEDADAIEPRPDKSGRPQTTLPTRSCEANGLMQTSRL
As to the kind of experiment: SSTR5 antagonistic activity in vitro by calcium flow detection (mSSTR5-CHO-Gα16 cells). It is filed as cell-based. Conditions: 100 nM Somatostatin-14 agonist, Fluo-4 fluorescence 525 nm.
Text: as §1, §2

Experiment [3] relates to C57BL/6J mice. As to the kind of experiment: Gallbladder emptying promotion experiment. It is filed as in vivo, mouse. The note with it: 30 mg/kg by gavage, egg yolk 1 h later, gallbladder removed after 15 min, versus control group, FIG. 2. How it is done: Experimental method: Before the experiment, 8-10 weeks old C57BL/6J mice were fasted for 17-18 hours and allowed to drink water freely. The mice were then divided into groups according to weight (n=4), and were gavaged with an aqueous solution of the compound prepared in Example 34 (30 mg/kg) or an equal volume of distilled water (control group), with a dosing volume of 10 mL/kg. At one hour after administration, 200 microliters of egg yolk were orally administered to the mice. After 15 minutes, the mice were killed by dislocation and dissected, and the gallbladder was removed and the bile was squeezed out and weighed with an analytical balance.

Experiment [4] relates to SSTR5. As to the kind of experiment: Calcium flow response to the SSTR5 agonist (choice of agonist concentration). Conditions: CHO-Gα16 cells expressing SSTR5, cell line (h or m) not stated. It is filed as cell-based.
Text: as §1, with “agonist. […]” for “agonist.”

T1 sequence (P35346 whole entry): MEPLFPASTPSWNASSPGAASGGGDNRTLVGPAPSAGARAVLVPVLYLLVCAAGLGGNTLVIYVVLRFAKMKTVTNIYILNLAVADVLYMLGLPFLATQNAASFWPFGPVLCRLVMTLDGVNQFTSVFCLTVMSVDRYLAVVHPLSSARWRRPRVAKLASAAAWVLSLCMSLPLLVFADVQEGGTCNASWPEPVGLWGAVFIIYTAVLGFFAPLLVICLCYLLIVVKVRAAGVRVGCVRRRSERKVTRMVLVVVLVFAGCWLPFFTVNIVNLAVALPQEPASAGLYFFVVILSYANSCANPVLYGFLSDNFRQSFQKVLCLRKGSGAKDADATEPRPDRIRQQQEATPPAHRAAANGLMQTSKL

For orientation: IC50 means the concentration at which inhibition is half-maximal. On to `CCOc1cc(CN2CCC(C3CN(S(=O)(=O)c4ccc(OC(F)(F)F)cc4)C3)CC2)cc(OCC)c1-c1ccc(F)cc1` [Example 14], for which the IC50 in experiment [1] and in experiment [2] was 0.1 to 50 nM each time.

Turning to `CCOc1cc(CN2CCC3(CC2)CN(c2ccc(C(=O)O)cc2F)C3)cc(OCC)c1-c1ccc(F)cc1` [Example 27, 4-(7-((2,6-diethoxy-4′-fluoro-[1,1′-biphenyl]-4-yl)methyl)-2,7-diazaspiro[3.5]nonan-2-yl)-3-fluorobenzoic acid], in experiment [1], the IC50 is 0.1 to 50 nM and the “SSTR5 antagonistic activity (in words)” value is listed as “potent SSTR5 antagonistic activity”. Also, in experiment [2], the IC50 lay in the range of 0.1 to 50 nM.

Consider `CCOc1cc(CN2CCC3(CC2)CN(c2ccc(C(=O)O)c(OC)c2)C3)cc(OCC)c1-c1ccc(F)cc1` [Example 28, 4-(7-((2,6-diethoxy-4′-fluoro-[1,1′-biphenyl]-4-yl)methyl)-2,7-diazaspiro[3.5]nonan-2-yl)-2-methoxybenzoic acid], for which, in experiment [1], the IC50 was 0.1 to 50 nM and the “SSTR5 antagonistic activity (in words)” value was “potent SSTR5 antagonistic activity”. The IC50 in experiment [2] fell in the range of 0.1 to 50 nM.

For `CCOc1cc(CN2CCC3(CC2)CN(c2ccc(C(=O)O)c(F)c2)C3)c(C2CC2)cc1C` [Example 34, 4-(7-(2-cyclopropyl-5-ethoxy-4-methylbenzyl)-2,7-diazaspiro[3.5]nonan-2-yl)-2-fluorobenzoic acid], the “emptying of the mouse gallbladder (bile weight)” value in experiment [3] is listed as “significantly promote the emptying of the mouse gallbladder”.

By EC50 is commonly meant the concentration at which the effect is half-maximal. On to Somatostatin-14, for which, in experiment [4], the EC50 worked out at 9.7 nM.
